“Also recorded” adds a separate entry of the source. Counter-ions that a name gives are not always drawn.
Assays:
[1] = Localization of ADR in brain tissue (inverted fluorescence microscope); format: in vivo; conditions: mouse brain 3 hours after 20 mg/kg ADR i.p.; hydrochloride
Experimental: Eight-week-old male B6C3 mice (25-30 g) were kept under standard conditions. The mice were injected in a single intraperitoneal (i.p.) dose of 20 mg/kg adriamycin (Doxorubicin hydrochloride, […] Sicor Phamaceuticals, Inc., Irvine, Calif.), or the same volume of saline as control for 3 hours. […] Controls consisted of anti-TNF α antibody alone, or saline in the same total volume. All results were obtained from at least three separate experiments. Mice were euthanized by the i.p. injection of 65 mg/kg of nembutal (Sodium pentobarbital, Abbott Laboratories, North Chicago, Ill.), and were perfused via cardiac puncture initially with 0.1 M phosphate buffered saline (PBS), pH 7.4, and subsequent fixation with 4% paraformaldehyde. […] The sections were prepared for immunohistochemistry and detection of ADR. ADR in brain tissue slices was directly visualized using an inverted fluorescence microscope, FIG. 1 (excitation filter 550 nm, and barrier filter 590 nm). Photomicrographs were taken with an Olympus MagnaFire digital camera (Olympus, America, Melville, N.Y.).

TNF α = assay: Immunofluorescence of TNF α localization in neurons of cortex and hippocampus (MAP2 co-staining); format: in vivo, mouse; conditions: 3 hours after 20 mg/kg ADR, vs saline; hydrochloride
Experimental: Brain tissue slices were fixed in 4% paraformaldehyde for 15 minutes, air dried, and washed with PBS. Non-specific proteins were blocked in blocking serum, consisting of 3% normal donkey's serum, and 0.3% Triton x-100 in PBS, and incubated at room temperature for 30 minutes. After blocking, slices were incubated with primary anti-TNF α (Upstate, Lake Placid, N.Y.), and anti-MAP2 antibody (Chemicon, Temecula, Calif.) was used as a neuronal marker, in order to study the location of TNF α in neurons of cortical and hippocampal regions. The sections were kept in a humidified box at 4° C. overnight. Tissues were washed three times with PBS and then were incubated for 1 hour with donkey antibody-conjugated secondary antibodies coated with fluorescent dyes. Excess secondary antibodies were removed by washing three times in PBS and once with deionized H2O. Tissue slides were mounted with mounting medium (Vectashield, HOURS-100, Vector Laboratories, Burlingame, Calif.). Photomicrographs were obtained using a Leica confocal fluorescence microscope (Leica Microsystems Inc., Bannockburn, Ill., USA).

[2] = tested on: cortical and hippocampal cells; assay: TUNEL-positive apoptotic cell death in cortical and hippocampal regions; format: in vivo, mouse; conditions: 3 and 72 hours after ADR, vs saline
Experimental: (A) Brain cryosection tissues were treated with biotinylated rTdT, followed by streptavidin peroxidase and diaminobenzidine-hydrogen peroxide, and counterstained with methyl-green. […] (For interpretation of the references to colour in this figure legend, the reader is referred to the web version of this article.)

iNOS mRNA = iNOS mRNA expression in brain tissues (RT-PCR); format: in vivo, mouse; conditions: wild-type mice, 3 hours after treatment, vs saline controls
Experimental: At 3 hours after treatment, mice were anesthetized and perfused via cardiac puncture with 0.1 M PBS, pH 7.4. The MRNA was isolated using the Micro-FastTrack 2.0 Kit (Invitrogen, Groningen, Netherlands) according to the manufacturer's instructions. The purified MRNA (5 μg) was subjected to reverse-transcription into first strand cDNA in each 20 μL of reaction mixture using the SuperScript III First-Strand Synthesis System for RT-PCR (Invitrogen) according to the manufacturer's instruction. A 25 μL PCR reaction contained 5 μL first strand cDNA, 0.1 U Taq DNA polymerase (Invitrogen), 10 mM 10×PCR buffer, 1.5 mM MgCl2, 2.5 mM dNTP and 10 pmol of each specific primer. PCR samples were subjected to the following conditions: 35 cycles for iNOS (94° C.: 1 minute; 65° C.: 1 minute; 72° C.: 1 minute), 32 cycles for β-actin (94° C.: […]; 55° C.: 30 s; 72° C.: 10 minutes), on a thermocycle (Perkin-Elmer). The primers with the target gene sequences were synthesized by Invitrogen. The primer sequence iNOS was 5′-CTGATGGTCAAGATCCAG-A-GGTCT-3′ (forward) and 5′-[…]-CTCT-3′(reverse), and the primer for β-actin was 5′-TGTTAC-CAACTGGGACGACA-3′ (forward) and 5′-CTGGGTCATCTT-TTCACCGT-3′ (reverse). After amplification, PCR products were subjected to 1% agarose gel electrophoresis, and visualized by ethidium bromide staining. The relative density of bands was analyzed under ultraviolet light (Bio-Rad). Experiments were repeated three times for reproducibility.

MnSOD = assay: Nitration of MnSOD (immunoprecipitation and western blot); format: in vivo, mouse; conditions: hydrochloride
Experimental: Solubilized isolated mitochondrial proteins (500 μg) in 500 μL RIPA buffer (9.1 mM Na2HPO4, 1.7 mM NaH2PO4, 150 mM NaCl, 0.5% sodium deoxycholate, 1% v/v Nonidet P40, 0.1% SDS, pH 7.2) were incubated for 16 hours at 4° C. with 10 μg/mL anti-nitrotyrosine antibody (Cayman Chemical, Ann Arbor, Mich., USA) or polyclonal anti-MnSOD antibody (Upstate Biotechnology). Immune complexes were precipitated with 50 μL protein A/G-Agarose. Immunocomplexes were collected by centrifugation at 1500 g for 5 minutes at 4° C., and then washed four times with RIPA buffer. Immunoprecipitated samples were recovered by resuspending in 50 μL 2×sample loading buffer, heated to 95° C. for 5 minutes, and immediately fractionated by reducing SDS-PAGE in 12.5% gels. […] Immunoreactivities of the MnSOD nitrated protein bands were detected by ECL (Amersham Phamacia Biotech) as described by the manufacturer. Nitration of MnSOD was quantified using an akaline phosphatase-linked secondary antibody (Sigma), as described previously (Sultana et al. 2004), and evaluated by densitometric analysis used a Bio-Rad densitometer (Bio-Rad Laboratories, Hercules, Calif., USA).

MnSOD, CuZnSOD = assay: MnSOD and CuZnSOD protein levels in brain homogenates (western blot); format: in vivo, mouse; conditions: wild-type and iNOSKO mice, 3 hours after ADR 20 mg/kg
Experimental: Brains were perfused, the cerebellum removed and the brain dissected from mice treated with i.p. ADR 20 mg/kg, or saline as a control, for 3 hours. Brains were placed in ice-cold 50 mM PBS, pH 7.4, containing the protease inhibitors 4 μg leupeptin, 4 μg pepstatin, and 5 μg aprotinin, washed and chopped in ice-cold PBS containing protease inhibitors. Tissues were homogenized with a Potter-Elvehjem glass homogenizer with a loose fitting Teflon® pestle, and protein concentration was determined by the Bradford assay (Bradford, 1976). Brain homogenate proteins were size-separated using denaturing sodium dodecyl sulfate-polyacrylamide gel electrophoresis (SDS-PAGE). Proteins (50 μg) were electrophoresed on 12.5% SDS-PAGE and transferred to a nitrocellulose membrane. The membrane was blocked for 1 hour at room temperature in blocking solution consisting of 5% non-fat dried milk, Tris-buffered saline (TBST; 10 mM Tris-HC, 150 mM NaCl, 0.05% Tween 20), pH 7.9. After blocking, the membrane was incubated overnight at 4° C. with primary antibodies against MnSOD (Upstate, Lake Placid, N.Y., USA), Cu/ZnSOD (Calbiochem, San Diego, Calif., USA) and β-actin (Sigma) in blocking solution. […] Immunoreactivities of the protein bands were detected by enhanced chemiluminescence autoradiography (ECL; Amersham Phamacia Biotech, Arlington Heights, Ill., USA) as described by the manufacturer.

[3] = tested on: mitochondrial respiration complex I; assay: Brain mitochondrial respiration, complex I (pyruvate + malate), respiration control ratio; conditions: 3 hours after treatment, hydrochloride
Experimental: Mice were perfused via cardiac puncture with cold mitochondrial isolation buffer, the brain promptly removed, the cerebellum dissected away, and mitochondria immediately isolated from the freshly brain by a modification of the method described by Mattiazzi et al. (2002). Brain mitochondria were isolated in cold mitochondrial isolation buffer, containing 0.07 M sucrose, 0.22 M mannitol, 20 mM HEPES, 1 mM EGTA, and 1% bovine serum albumin, pH 7.2. Tissues were homogenized with a Dounce homogenizer and centrifuged at 1,500×g at 4° C. for 5 minutes before transferring the supernatant. The pellets were resuspended and centrifuged at 1,500×g at 4° C. for 5 minutes. The supernatants were combined and centrifuged at 13,500×g at 4° C. for 10 minutes. Mitochondrial pellets were washed twice and finally resuspended in 50-100 μL cold isolation buffer. Protein concentration of isolated mitochondria was determined by the Bradford assay (Bradford, 1976). The final protein concentration was 20-40 mg/ml.
Mitochondrial respiration was determined using Clark-type polarographic oxygen sensors (Hansatech Instruments, Kings Lynn, Norfolk, UK) to measure the rate of oxygen consumption. Freshly isolated mitochondria were suspended in respiration buffer at a concentration of 0.5 mg mitochondrial protein per mL of respiration buffer, which consists of 0.25 M sucrose, 50 mM HEPES, 1 mM EGTA, 10 mM KH2PO4, and 2 mM MgCl2, pH 7.4. Oxygen consumption was measured with either pyruvate (10 mM) plus malate (10 mM) or succinate (10 mM) as substrates for respiration from complex I or complex II in the absence of exogenous ADP (state II) and after addition of 300 mM ADP (state III respiration). Rotenone (5 μM) was added to the reaction to inhibit respiration from complex I when succinate was used as the substrate. […] FCCP (1 μM), an uncoupling agent, was added as a control of respiration. Respiration control ratios (RCR) were calculated as the ratios of state III and state II respiration as described previously by Estabrook (1967). The unit for state II rate and state III rate is nmole/min/mg protein.
Mice were perfused via cardiac puncture with cold mitochondrial isolation buffer, the brain promptly removed, the cerebellum dissected away, and mitochondria immediately isolated from the freshly brain by a modification of the method described by Mattiazzi et al. (2002). Brain mitochondria were isolated in cold mitochondrial isolation buffer, containing 0.07 M sucrose, 0.22 M mannitol, 20 mM HEPES, 1 mM EGTA, and 1% bovine serum albumin, pH 7.2. Tissues were homogenized with a Dounce homogenizer and centrifuged at 1,500×g at 4° C. for 3 minutes before transferring the supernatant fluid. The pellets were resuspended and centrifuged at 1,500×g at 4° C. for 3 minutes. The supernatant fluids were combined and centrifuged at 1,500×g at 4° C. for 3 minutes. These supernatant fluids were then centrifuged at 13,500×g at 4° C. for 10 minutes. Mitochondrial pellets were washed twice and finally resuspended in 50-100 μL cold isolation buffer. Protein concentration of isolated mitochondria was determined by the Bradford assay (Bradford, 1976).
Mitochondrial respiration was determined using Clark-type polarographic oxygen sensors (Hansatech Instruments, UK) to measure the rate of oxygen consumption. Freshly-isolated mitochondria were suspended in respiration buffer at a concentration of 0.5 mg mitochondrial protein/mL respiration buffer, which consisted of 0.25 M sucrose, 50 mM HEPES, 1 mM EGTA, 10 mM KH2PO4, 2 mM MgCl2 and 0.2% BSA, pH 7.4. Oxygen consumption was measured with either pyruvate (10 mM) or pyruvate plus malate (10 mM) as substrates for respiration from complex I, in the absence of exogenous ADP (state II), and after addition of 300 mM ADP (state III respiration). […] FCCP (1 μM), an uncoupling agent, was added as a control respiration. Respiration control ratios (RCR) were calculated as the ratios of state III and state II respiration.

## COc1cccc2c1C(=O)c1c(O)c3c(c(O)c1C2=O)C[C@@](O)(C(=O)CO)C[C@@H]3O[C@H]1C[C@H](N)[C@H](O)[C@H](C)O1 [ADR, Doxorubicin hydrochloride]
[1]
  ADR orange-red fluorescence in areas outside the blood brain barrier (choroid plexus): observed in several areas outside the blood brain barrier, including the choroid plexus; also recorded: apparent in the choroid plexus
  ADR orange-red fluorescence in cortex and hippocampus: not observed in cortex and hippocampus; also recorded: not detected
TNF α
  TNF α in neurons of cortex: clearly were increased
  TNF α in neurons of hippocampus: clearly were increased
[2]
  TUNEL-positive apoptotic cells in cortex and hippocampus: increased number of apoptotic cells
iNOS mRNA
  iNOS mRNA levels in brain tissues: significantly increased
MnSOD; immunoprecipitation with anti-MnSOD antibody
  Expression of immunoprecipitated MnSOD protein, control vs ADR-treated brain mitochondria: no difference in expression; also recorded: No significant difference
MnSOD; wild-type mice, 3 hours after ADR 20 mg/kg
  Nitrated MnSOD (nitrotyrosine in MnSOD) in brain mitochondria: an increase of nitrated MnSOD; also recorded: significant increase in nitration of MnSOD; also recorded: significantly increased protein nitration
MnSOD, CuZnSOD
  CuZnSOD protein level in brain homogenates: no change
  MnSOD protein level in brain homogenates: no change
[3]; iNOSKO mice
  Brain mitochondrial respiration complex I (RCR): no effect; also recorded: not in iNOSKO mice
[3]; wild-type mice, vs saline control
  Brain mitochondrial respiration complex I (RCR, state III / state II): significantly decreased; also recorded: decline
